According to ChEMBL document CHEMBL3991601, “The target landscape of clinical kinase drugs” (Science, 2017):
Calls of active or inactive are those of the source. Rule as the data show it, for most assays here: actives have a measured Kd and inactives only a lower limit.

What was measured:
[1] = target: Protein-tyrosine kinase 6 (Homo sapiens, UniProt Q13882)
[2] = target: T1, Ras-related protein Rab-10 (Homo sapiens, UniProt P61026)
T1 sequence (P61026 whole entry): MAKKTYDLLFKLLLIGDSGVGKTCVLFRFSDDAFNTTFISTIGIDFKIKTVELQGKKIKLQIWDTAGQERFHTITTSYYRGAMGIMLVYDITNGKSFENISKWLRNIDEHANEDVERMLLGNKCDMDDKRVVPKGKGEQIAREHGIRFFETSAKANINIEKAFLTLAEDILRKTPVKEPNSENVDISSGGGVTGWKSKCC

[3] = target: LIM domain kinase 1 (Homo sapiens, UniProt P53667)
[4] = target: T2, Dual specificity mitogen-activated protein kinase kinase 5 (Homo sapiens, UniProt Q13163)
T2 sequence (Q13163 whole entry): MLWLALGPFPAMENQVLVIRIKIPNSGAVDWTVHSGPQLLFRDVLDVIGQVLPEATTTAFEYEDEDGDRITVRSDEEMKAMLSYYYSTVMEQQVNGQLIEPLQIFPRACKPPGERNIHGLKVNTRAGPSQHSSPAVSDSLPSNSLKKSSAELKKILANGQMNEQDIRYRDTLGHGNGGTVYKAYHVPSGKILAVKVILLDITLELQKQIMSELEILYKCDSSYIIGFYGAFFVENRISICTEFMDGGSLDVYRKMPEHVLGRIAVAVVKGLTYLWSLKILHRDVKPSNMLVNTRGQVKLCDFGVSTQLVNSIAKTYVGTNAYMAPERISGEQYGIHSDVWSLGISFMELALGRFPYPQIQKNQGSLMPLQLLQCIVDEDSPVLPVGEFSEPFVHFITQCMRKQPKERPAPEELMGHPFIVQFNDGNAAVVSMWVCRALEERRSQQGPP

[5] = target: T3, Serine/threonine-protein kinase 4 (Homo sapiens, UniProt Q13043)
T3 sequence (Q13043 whole entry): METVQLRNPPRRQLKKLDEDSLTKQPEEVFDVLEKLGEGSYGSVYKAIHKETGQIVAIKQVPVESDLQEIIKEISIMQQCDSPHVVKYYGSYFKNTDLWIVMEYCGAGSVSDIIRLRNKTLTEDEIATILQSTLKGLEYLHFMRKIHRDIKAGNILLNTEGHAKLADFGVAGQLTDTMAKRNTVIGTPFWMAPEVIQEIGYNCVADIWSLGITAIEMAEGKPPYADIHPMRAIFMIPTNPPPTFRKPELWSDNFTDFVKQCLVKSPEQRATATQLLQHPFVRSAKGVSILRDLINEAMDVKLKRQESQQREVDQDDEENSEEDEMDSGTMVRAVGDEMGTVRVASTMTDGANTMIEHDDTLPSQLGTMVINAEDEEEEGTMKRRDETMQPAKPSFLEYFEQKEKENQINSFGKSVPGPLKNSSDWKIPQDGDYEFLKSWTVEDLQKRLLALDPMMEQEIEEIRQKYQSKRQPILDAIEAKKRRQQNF

[6] = target: T4, Discoidin domain-containing receptor 2 (Homo sapiens, UniProt Q16832)
T4 sequence (Q16832 whole entry): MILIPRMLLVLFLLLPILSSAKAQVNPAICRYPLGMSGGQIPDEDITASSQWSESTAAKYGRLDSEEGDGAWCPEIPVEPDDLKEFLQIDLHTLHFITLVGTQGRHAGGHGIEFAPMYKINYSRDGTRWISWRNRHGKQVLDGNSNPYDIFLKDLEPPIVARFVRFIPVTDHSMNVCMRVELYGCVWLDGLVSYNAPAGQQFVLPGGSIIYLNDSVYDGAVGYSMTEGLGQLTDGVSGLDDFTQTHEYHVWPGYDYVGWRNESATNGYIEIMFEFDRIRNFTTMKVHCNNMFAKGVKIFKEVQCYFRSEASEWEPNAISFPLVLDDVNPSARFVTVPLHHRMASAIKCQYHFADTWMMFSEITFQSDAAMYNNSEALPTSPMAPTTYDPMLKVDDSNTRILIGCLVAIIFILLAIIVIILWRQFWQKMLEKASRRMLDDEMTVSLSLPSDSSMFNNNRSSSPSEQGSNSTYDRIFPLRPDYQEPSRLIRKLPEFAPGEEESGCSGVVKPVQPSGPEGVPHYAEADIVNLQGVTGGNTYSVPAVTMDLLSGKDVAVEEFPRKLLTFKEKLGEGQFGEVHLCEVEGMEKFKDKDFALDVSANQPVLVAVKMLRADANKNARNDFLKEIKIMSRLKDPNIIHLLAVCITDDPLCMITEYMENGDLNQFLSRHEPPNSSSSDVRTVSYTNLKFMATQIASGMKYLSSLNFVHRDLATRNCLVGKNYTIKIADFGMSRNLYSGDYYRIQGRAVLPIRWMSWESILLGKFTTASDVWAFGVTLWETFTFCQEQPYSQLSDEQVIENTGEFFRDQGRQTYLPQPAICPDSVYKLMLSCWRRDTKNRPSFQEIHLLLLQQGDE

[7] = target: RAC-alpha serine/threonine-protein kinase (Homo sapiens, UniProt P31749)
[8] = target: Tyrosine-protein kinase Lck (Homo sapiens, UniProt P06239)
[9] = target: Tyrosine-protein kinase Yes (Homo sapiens, UniProt P07947)
[10] = target: T5, Non-receptor tyrosine-protein kinase TNK1 (Homo sapiens, UniProt Q13470)
T5 sequence (Q13470 whole entry): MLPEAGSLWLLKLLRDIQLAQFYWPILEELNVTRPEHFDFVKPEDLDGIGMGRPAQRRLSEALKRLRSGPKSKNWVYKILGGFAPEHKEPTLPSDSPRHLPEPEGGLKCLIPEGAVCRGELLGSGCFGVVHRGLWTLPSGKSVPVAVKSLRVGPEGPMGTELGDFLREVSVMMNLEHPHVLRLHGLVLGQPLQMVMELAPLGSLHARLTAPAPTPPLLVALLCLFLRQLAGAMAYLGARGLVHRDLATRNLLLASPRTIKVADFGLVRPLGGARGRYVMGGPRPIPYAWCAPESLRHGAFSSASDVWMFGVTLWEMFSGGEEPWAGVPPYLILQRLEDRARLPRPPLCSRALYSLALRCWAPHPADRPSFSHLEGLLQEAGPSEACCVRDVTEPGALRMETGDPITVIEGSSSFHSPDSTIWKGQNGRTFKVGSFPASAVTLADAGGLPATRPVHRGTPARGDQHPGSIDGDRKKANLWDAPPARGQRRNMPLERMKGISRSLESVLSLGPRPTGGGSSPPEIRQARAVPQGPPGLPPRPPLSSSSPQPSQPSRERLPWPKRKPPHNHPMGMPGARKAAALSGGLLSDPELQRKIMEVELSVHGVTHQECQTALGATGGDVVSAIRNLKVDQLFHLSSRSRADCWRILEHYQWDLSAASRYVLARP
Also: in the data inactive means no Kd found up to 30 µM.

Chain of Protein-tyrosine kinase 6 (Q13882 whole entry): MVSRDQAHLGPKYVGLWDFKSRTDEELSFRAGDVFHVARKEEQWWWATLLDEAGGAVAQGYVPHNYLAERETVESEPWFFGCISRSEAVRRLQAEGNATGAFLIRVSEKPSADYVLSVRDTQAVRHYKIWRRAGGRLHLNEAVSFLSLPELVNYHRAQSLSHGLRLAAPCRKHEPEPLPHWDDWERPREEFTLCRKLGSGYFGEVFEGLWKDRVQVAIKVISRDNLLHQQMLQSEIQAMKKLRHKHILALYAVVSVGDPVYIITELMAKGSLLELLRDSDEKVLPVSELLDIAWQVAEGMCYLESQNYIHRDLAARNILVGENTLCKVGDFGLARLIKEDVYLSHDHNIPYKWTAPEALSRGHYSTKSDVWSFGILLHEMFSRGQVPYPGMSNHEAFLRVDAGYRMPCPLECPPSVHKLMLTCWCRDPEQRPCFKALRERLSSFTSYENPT
Chain of RAC-alpha serine/threonine-protein kinase (P31749 whole entry): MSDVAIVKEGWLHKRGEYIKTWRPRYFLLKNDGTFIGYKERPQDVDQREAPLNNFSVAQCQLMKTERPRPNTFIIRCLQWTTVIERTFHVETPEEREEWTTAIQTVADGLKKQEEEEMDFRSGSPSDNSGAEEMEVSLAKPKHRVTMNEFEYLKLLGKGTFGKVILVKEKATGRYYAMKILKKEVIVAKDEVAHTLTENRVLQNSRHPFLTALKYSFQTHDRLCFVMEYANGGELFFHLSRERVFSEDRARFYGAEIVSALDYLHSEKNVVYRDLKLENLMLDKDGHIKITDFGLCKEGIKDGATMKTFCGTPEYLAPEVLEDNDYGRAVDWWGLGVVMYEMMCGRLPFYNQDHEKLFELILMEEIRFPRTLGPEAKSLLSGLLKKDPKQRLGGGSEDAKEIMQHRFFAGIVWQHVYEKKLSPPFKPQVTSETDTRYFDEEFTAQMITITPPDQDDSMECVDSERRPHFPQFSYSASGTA
Chain of Tyrosine-protein kinase Yes (P07947 whole entry): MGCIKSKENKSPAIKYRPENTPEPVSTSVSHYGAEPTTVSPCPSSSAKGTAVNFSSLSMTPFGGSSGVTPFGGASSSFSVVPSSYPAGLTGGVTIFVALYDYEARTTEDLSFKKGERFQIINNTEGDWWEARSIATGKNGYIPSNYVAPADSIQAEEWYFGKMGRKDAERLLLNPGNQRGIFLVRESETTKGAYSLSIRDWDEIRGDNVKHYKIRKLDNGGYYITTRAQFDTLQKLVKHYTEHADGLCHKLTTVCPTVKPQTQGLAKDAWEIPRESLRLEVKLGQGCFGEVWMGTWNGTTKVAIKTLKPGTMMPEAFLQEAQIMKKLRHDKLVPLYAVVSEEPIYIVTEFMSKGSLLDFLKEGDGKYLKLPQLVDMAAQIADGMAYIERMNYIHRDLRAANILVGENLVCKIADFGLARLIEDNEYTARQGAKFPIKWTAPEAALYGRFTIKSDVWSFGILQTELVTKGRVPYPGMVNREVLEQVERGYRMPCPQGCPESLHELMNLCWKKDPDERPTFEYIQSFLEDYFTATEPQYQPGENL
Chain of LIM domain kinase 1 (P53667 whole entry, the tested form may be a part): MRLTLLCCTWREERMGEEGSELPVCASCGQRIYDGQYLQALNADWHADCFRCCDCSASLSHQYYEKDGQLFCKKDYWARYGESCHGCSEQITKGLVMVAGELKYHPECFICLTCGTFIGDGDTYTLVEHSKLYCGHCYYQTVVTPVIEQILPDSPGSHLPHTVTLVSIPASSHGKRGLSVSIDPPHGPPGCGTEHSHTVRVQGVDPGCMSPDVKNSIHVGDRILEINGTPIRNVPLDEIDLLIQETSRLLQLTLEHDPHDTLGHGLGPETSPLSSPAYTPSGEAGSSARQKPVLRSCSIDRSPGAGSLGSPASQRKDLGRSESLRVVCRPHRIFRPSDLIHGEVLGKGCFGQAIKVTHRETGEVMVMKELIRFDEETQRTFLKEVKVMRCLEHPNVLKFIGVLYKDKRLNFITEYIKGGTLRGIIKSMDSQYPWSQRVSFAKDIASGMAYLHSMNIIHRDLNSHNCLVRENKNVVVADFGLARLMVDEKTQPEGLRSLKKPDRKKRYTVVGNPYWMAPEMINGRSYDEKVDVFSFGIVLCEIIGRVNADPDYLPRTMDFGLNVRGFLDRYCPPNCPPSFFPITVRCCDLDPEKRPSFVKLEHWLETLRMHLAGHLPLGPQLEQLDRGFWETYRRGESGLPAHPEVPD
Chain of Tyrosine-protein kinase Lck (P06239 whole entry): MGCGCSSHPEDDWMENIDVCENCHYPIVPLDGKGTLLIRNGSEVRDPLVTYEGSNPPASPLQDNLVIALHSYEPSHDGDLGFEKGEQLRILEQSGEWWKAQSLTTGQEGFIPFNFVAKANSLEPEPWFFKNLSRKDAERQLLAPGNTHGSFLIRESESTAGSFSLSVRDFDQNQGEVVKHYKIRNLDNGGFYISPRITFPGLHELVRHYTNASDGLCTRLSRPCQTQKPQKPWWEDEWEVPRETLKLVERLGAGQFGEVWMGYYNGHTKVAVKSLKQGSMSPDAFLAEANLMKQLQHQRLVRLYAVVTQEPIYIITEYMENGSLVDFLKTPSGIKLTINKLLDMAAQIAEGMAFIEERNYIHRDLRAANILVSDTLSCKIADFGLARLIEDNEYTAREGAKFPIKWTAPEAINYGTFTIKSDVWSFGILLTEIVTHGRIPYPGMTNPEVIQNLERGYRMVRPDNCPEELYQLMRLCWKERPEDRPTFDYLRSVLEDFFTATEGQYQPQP

| Kd [1] | Kd [2] | Kd [3] | Kd [4] | Kd [5] | Kd [6] | Kd [7] | Kd [8] | Kd [9] | Kd [10] | SMILES |
| --- | --- | --- | --- | --- | --- | --- | --- | --- | --- | --- |
| > 30 µM (inactive) | > 30 µM (inactive) | > 30 µM (inactive) | > 30 µM (inactive) | > 30 µM (inactive) | > 30 µM (inactive) | > 30 µM (inactive) | > 30 µM (inactive) | > 30 µM (inactive) | > 30 µM (inactive) | COc1cc(OC)c(/C=C/S(=O)(=O)Cc2ccc(OC)c(NCC(=O)O)c2)c(OC)c1 [RIGOSERTIB] |
| > 30 µM (inactive) | > 30 µM (inactive) | > 30 µM (inactive) | > 30 µM (inactive) | > 30 µM (inactive) | > 30 µM (inactive) | > 30 µM (inactive) | > 30 µM (inactive) | > 30 µM (inactive) | > 30 µM (inactive) | C[C@@H](c1ccc2nccn2c1)n1nnc2ncc(-c3cnn(C)c3)nc21 [SAVOLITINIB] |
| > 30 µM (inactive) | > 30 µM (inactive) | > 30 µM (inactive) | > 30 µM (inactive) | > 30 µM (inactive) | > 30 µM (inactive) | > 30 µM (inactive) | > 30 µM (inactive) | > 30 µM (inactive) | > 30 µM (inactive) | CN1CCC(CNc2ccc3ncc(-c4cccc(OC(F)(F)F)c4)n3n2)CC1 [SGI-1776] |
| > 30 µM (inactive) | > 30 µM (inactive) | > 30 µM (inactive) | > 30 µM (inactive) | > 30 µM (inactive) | > 30 µM (inactive) | > 30 µM (inactive) | > 30 µM (inactive) | > 30 µM (inactive) | > 30 µM (inactive) | CN1N=C(N)c2cn([C@@H]3O[C@H](COP(=O)(O)O)[C@@H](O)[C@H]3O)c3ncnc1c23 [TRICIRIBINE PHOSPHATE] |
| > 30 µM (inactive) | > 30 µM (inactive) | > 30 µM (inactive) | > 30 µM (inactive) | > 30 µM (inactive) | > 30 µM (inactive) | > 30 µM (inactive) | > 30 µM (inactive) | > 30 µM (inactive) | > 30 µM (inactive) | CC[C@@H]1C(=O)N(C)c2cnc(Nc3ccc(C(=O)N[C@H]4CC[C@H](N5CCN(CC6CC6)CC5)CC4)cc3OC)nc2N1C(C)C [VOLASERTIB] |

More lines, now with the values behind:

| SMILES | Kd [1] | Kd [2] | Kd [3] | Kd [4] | Kd [5] | Kd [6] | Kd [7] | Kd [8] | Kd [9] | Kd [10] |
| --- | --- | --- | --- | --- | --- | --- | --- | --- | --- | --- |
| CNC(=O)CN1CCC(Oc2cc3c(Nc4cccc(Cl)c4F)ncnc3cc2OC)CC1 [SAPITINIB] | 2.2 µM (active) | > 30 µM (inactive) | > 30 µM (inactive) | > 30 µM (inactive) | > 30 µM (inactive) | > 30 µM (inactive) | > 30 µM (inactive) | > 30 µM (inactive) | > 30 µM (inactive) | > 30 µM (inactive) |
| C[C@@H]1CN(Cc2ccc(F)cc2)[C@@H](C)CN1C(=O)c1cc2c(C(=O)C(=O)N(C)C)cn(C)c2cc1Cl [TALMAPIMOD] | > 30 µM (inactive) | > 30 µM (inactive) | > 30 µM (inactive) | > 30 µM (inactive) | > 30 µM (inactive) | > 30 µM (inactive) | > 30 µM (inactive) | > 30 µM (inactive) | > 30 µM (inactive) | > 30 µM (inactive) |
| CN1CCC(COc2cnc(-c3cccc(Cn4nc(-c5cccc(C#N)c5)ccc4=O)c3)nc2)CC1 [TEPOTINIB] | > 30 µM (inactive) | > 30 µM (inactive) | > 30 µM (inactive) | > 30 µM (inactive) | > 30 µM (inactive) | > 30 µM (inactive) | > 30 µM (inactive) | > 30 µM (inactive) | > 30 µM (inactive) | > 30 µM (inactive) |
| O=c1sn(-c2cccc3ccccc23)c(=O)n1Cc1ccccc1 [TIDEGLUSIB] | > 30 µM (inactive) | > 30 µM (inactive) | > 30 µM (inactive) | > 30 µM (inactive) | > 30 µM (inactive) | > 30 µM (inactive) | > 30 µM (inactive) | > 30 µM (inactive) | > 30 µM (inactive) | > 30 µM (inactive) |
| COc1cc2nccc(Oc3ccc(NC(=O)Nc4cc(C)on4)c(Cl)c3)c2cc1OC [TIVOZANIB] | 0.787 µM (active) | > 30 µM (inactive) | > 30 µM (inactive) | > 30 µM (inactive) | > 30 µM (inactive) | 0.592 µM (active) | > 30 µM (inactive) | 2.18 µM (active) | > 30 µM (inactive) | > 30 µM (inactive) |
| CC(=O)Nc1cccc(-n2c(=O)n(C3CC3)c(=O)c3c(Nc4ccc(I)cc4F)n(C)c(=O)c(C)c32)c1 [TRAMETINIB] | > 30 µM (inactive) | > 30 µM (inactive) | > 30 µM (inactive) | > 30 µM (inactive) | > 30 µM (inactive) | > 30 µM (inactive) | > 30 µM (inactive) | > 30 µM (inactive) | > 30 µM (inactive) | > 30 µM (inactive) |
| CC(C)Nc1cc(-c2c[nH]c(C(=O)N[C@H](CO)c3cccc(Cl)c3)c2)c(Cl)cn1 [ULIXERTINIB] | > 30 µM (inactive) | > 30 µM (inactive) | > 30 µM (inactive) | > 30 µM (inactive) | > 30 µM (inactive) | > 30 µM (inactive) | > 30 µM (inactive) | > 30 µM (inactive) | > 30 µM (inactive) | > 30 µM (inactive) |
| CCCS(=O)(=O)Nc1ccc(F)c(C(=O)c2c[nH]c3ncc(-c4ccc(Cl)cc4)cc23)c1F [VEMURAFENIB] | 1.41 µM (active) | > 30 µM (inactive) | > 30 µM (inactive) | 0.734 µM (active) | > 30 µM (inactive) | > 30 µM (inactive) | > 30 µM (inactive) | > 30 µM (inactive) | > 30 µM (inactive) | > 30 µM (inactive) |
